In ChEMBL document CHEMBL2417501, “Synthesis of 4-aminoquinoline-pyrimidine hybrids as potent antimalarials and their mode of action studies” (Eur J Med Chem, 2013):

Tests used:
Influenza B virus = experiment: Antiviral activity against influenza B virus infected in dog MDCK cells assessed as reduction of virus-induced cytopathogenicity by MTS assay; type: functional, organism-based
[1] = Cytotoxicity against human HEL cells; type: cell-based
Sindbis virus = experiment: Antiviral activity against Sindbis virus infected in african green monkey Vero cells assessed as reduction of virus-induced cytopathogenicity; type: functional, organism-based
MDCK = experiment: (§1) Cytotoxicity against MDCK cells assessed as cell viability after 4 days by MTS assay; type: cell-based, Canis lupus familiaris; settings: dog, mdck, 96 h
[2] = as §1; type: cell-based, Canis lupus familiaris; settings: dog, MDCK cells
Felid alphaherpesvirus 1 = experiment: Antiviral activity against feline herpesvirus infected in cat CRFK cells assessed as reduction of virus-induced cytopathogenicity by MTS assay; type: functional, organism-based; settings: Felid alphaherpesvirus 1, CRFK
[3] = system: Vesicular stomatitis virus; experiment: Antiviral activity against Vesicular stomatitis virus infected in human HEL cells assessed as reduction of virus-induced cytopathogenicity; type: functional, organism-based
[4] = Cytotoxicity against human HeLa cells; type: cell-based
[5] = Cytotoxicity against african green monkey Vero cells; type: cell-based; settings: chlorocebus sabaeus
[6] = Inhibition of beta-hematin formation at 1 mg/ml; type: functional
Punta Toro virus = experiment: Antiviral activity against […] infected in african green monkey Vero cells assessed as reduction of virus-induced cytopathogenicity; type: functional, organism-based
Coxsackievirus [7] = experiment: Antiviral activity against Coxsackievirus B4 infected in african green monkey Vero cells assessed as reduction of virus-induced cytopathogenicity; type: functional, organism-based
Human alphaherpesvirus 1 [8] = experiment: Antiviral activity against TK-negative Herpes simplex virus 1 KOS infected in human HEL cells assessed as reduction of virus-induced cytopathogenicity; type: functional, organism-based; settings: Human alphaherpesvirus 1, KOS
Influenza A virus [9] = experiment: Antiviral activity against influenza A virus H1N1 subtype infected in dog MDCK cells assessed as reduction of virus-induced cytopathogenicity by MTS assay; type: functional, organism-based
[10] = Cytotoxicity against cat CRFK cells; type: cell-based, Felis catus
Coxsackievirus [11] = experiment: Antiviral activity against Coxsackievirus B4 infected in human HeLa cells assessed as reduction of virus-induced cytopathogenicity; type: functional, organism-based
[12] = system: Mammalian orthoreovirus 1; experiment: Antiviral activity against Reovirus-1 infected in african green monkey Vero cells assessed as reduction of virus-induced cytopathogenicity; type: functional, organism-based; settings: Mammalian orthoreovirus 1, Vero
Cytomegalovirus [13] = experiment: Antiviral activity against Cytomegalovirus AD-169 infected in human HEL cells assessed as reduction of plaque formation; type: functional, organism-based; settings: Human betaherpesvirus 5, AD-169, HEL
Human alphaherpesvirus 3 [14] = experiment: Antiviral activity against TK-positive Varicella-zoster virus OKA infected in human HEL cells assessed as reduction of plaque formation; type: functional, cell-based; settings: Human alphaherpesvirus 3, strain Oka vaccine
[15] = system: Respiratory syncytial virus; experiment: Antiviral activity against Respiratory syncytial virus infected in human HeLa cells assessed as reduction of virus-induced cytopathogenicity; type: functional, organism-based
Plasmodium falciparum [16] = experiment: Antimalarial activity against chloroquine-sensitive Plasmodium falciparum D10 by two-fold dilution technique; type: functional, organism-based
Cytomegalovirus [17] = experiment: Antiviral activity against Cytomegalovirus Davis infected in human HEL cells assessed as reduction of plaque formation; type: functional, organism-based; settings: Human betaherpesvirus 5, Davis
Influenza A virus [18] = experiment: Antiviral activity against influenza A virus […] subtype infected in dog MDCK cells assessed as reduction of virus-induced cytopathogenicity by MTS assay; type: functional, organism-based; settings: read-out: EC50
Human respirovirus 3 = experiment: Antiviral activity against Parainfluenza-3 virus infected in african green monkey Vero cells assessed as reduction of virus-induced cytopathogenicity; type: functional, organism-based; settings: Human respirovirus 3, Vero
Human alphaherpesvirus 1 [19] = experiment: Antiviral activity against Herpes simplex virus-1 KOS infected in human HEL cells assessed as reduction of virus-induced cytopathogenicity; type: functional, organism-based; settings: Human alphaherpesvirus 1, KOS
[20] = system: Vesicular stomatitis virus; experiment: Antiviral activity against Vesicular stomatitis virus infected in human HeLa cells assessed as reduction of virus-induced cytopathogenicity; type: functional, organism-based
Feline coronavirus = experiment: Antiviral activity against Feline coronavirus infected in cat CRFK cells assessed as reduction of virus-induced cytopathogenicity by MTS assay; type: functional, organism-based; settings: Alphacoronavirus 1, CRFK
Human alphaherpesvirus 2 = experiment: Antiviral activity against Herpes simplex virus-2 G infected in human HEL cells assessed as reduction of virus-induced cytopathogenicity; type: functional, organism-based; settings: Human alphaherpesvirus 2, strain G
Human alphaherpesvirus 3 [21] = experiment: Antiviral activity against […] Varicella-zoster virus 07-1 infected in human HEL cells assessed as reduction of plaque formation; type: functional, organism-based; settings: Human alphaherpesvirus 3, 07-1, HEL
Plasmodium falciparum [22] = experiment: Antimalarial activity against chloroquine-resistant Plasmodium falciparum Dd2; type: functional, organism-based
[23] = Selectivity index, ratio of CC50 for MDCK cells to IC50 for chloroquine-resistant Plasmodium falciparum Dd2; type: functional

Structure (SMILES)	EC50 (Influenza B virus) [µM]	MCC [1] [µM]	EC50 (Sindbis virus) [µM]	CC50 (MDCK) [µM]	MCC at 96 h [2] [µM]	EC50 (Felid alphaherpesvirus 1) [µM]	EC50 [3] [µM]	MCC [4] [µM]	MCC [5] [µM]	inhibition [6] [%]	EC50 (Punta Toro virus) [µM]	EC50 (Coxsackievirus [7]) [µM]	EC50 (Human alphaherpesvirus 1 [8]) [µM]	EC50 (Influenza A virus [9]) [µM]	CC50 ([10]; crfk) [µM]	EC50 (Coxsackievirus [11]) [µM]	EC50 (Cytomegalovirus [13]) [µM]	EC50 (Cytomegalovirus [17]) [µM]	EC50 (Feline coronavirus) [µM]	EC50 (Human alphaherpesvirus 3 [21]) [µM]	further results
CCOC(=O)c1c(C)nc(NCCCCNc2ccnc3cc(Cl)ccc23)nc1-c1ccc(F)cc1	> 4	≥ 20	> 4	11.4	20	> 100	> 100	> 100	20	59	> 4	> 4	> 100	> 4	> 100	> 100	> 4	> 4	> 100	> 4	EC50 [12]: > 4 µM; EC50 (Human alphaherpesvirus 3 [14]): > 4 µM; EC50 [15]: > 100 µM; IC50 (Plasmodium falciparum [16]): 2.76 µM; EC50 (Influenza A virus [18]): > 4 µM; EC50 (Human respirovirus 3): > 4 µM; EC50 (Human alphaherpesvirus 1 [19]): > 100 µM; EC50 [20]: > 100 µM; EC50 (Human alphaherpesvirus 2): > 100 µM
CS(=O)(=O)c1ccc(-c2cnc(N)c(-c3ccc(C(F)(F)F)nc3)c2)cc1 [MMV-048]	–	–	–	–	–	–	–	–	–	–	–	–	–	–	–	–	–	–	–	–	IC50 (Plasmodium falciparum [22]): 0.0178 µM
CCOC(=O)c1c(C)nc(NCCCCNc2ccnc3cc(Cl)ccc23)nc1-c1ccccc1[N+](=O)[O-]	> 0.16	20	> 0.8	0.8	0.8	> 100	> 4	100	4	49	> 0.8	> 0.8	> 4	> 0.16	> 100	> 20	> 4	> 4	9	> 4	EC50 [12]: > 0.8 µM; EC50 (Human alphaherpesvirus 3 [14]): > 4 µM; EC50 [15]: > 20 µM; IC50 (Plasmodium falciparum [16]): 1.46 µM; EC50 (Influenza A virus [18]): > 0.16 µM; EC50 (Human respirovirus 3): > 0.8 µM; EC50 (Human alphaherpesvirus 1 [19]): > 4 µM; EC50 [20]: > 20 µM; EC50 (Human alphaherpesvirus 2): > 4 µM
CCOC(=O)c1c(C)nc(NCCCCNc2ccnc3cc(Cl)ccc23)nc1-c1ccc(Cl)cc1	> 0.8	20	> 0.8	2.2	≥ 0.8	> 100	> 20	> 100	4	56	> 0.8	> 0.8	> 20	> 0.8	> 100	> 100	> 4	> 4	> 100	> 4	EC50 [12]: > 0.8 µM; EC50 (Human alphaherpesvirus 3 [14]): > 4 µM; EC50 [15]: > 100 µM; IC50 (Plasmodium falciparum [16]): 1.93 µM; EC50 (Influenza A virus [18]): > 0.8 µM; EC50 (Human respirovirus 3): > 0.8 µM; EC50 (Human alphaherpesvirus 1 [19]): > 20 µM; EC50 [20]: > 100 µM; EC50 (Human alphaherpesvirus 2): > 20 µM
CCOC(=O)c1c(C)nc(OCCCNc2ccnc3cc(Cl)ccc23)nc1-c1ccccc1	> 4	> 4	> 20	21.1	20	> 100	> 100	> 100	100	87	> 20	> 20	> 100	> 4	> 100	> 100	2	2.53	> 100	> 4	Ratio CC50/IC50 [23]: 43.6; EC50 [12]: > 20 µM; EC50 (Human alphaherpesvirus 3 [14]): > 4 µM; EC50 [15]: > 100 µM; EC50 (Influenza A virus [18]): > 4 µM; IC50 (Plasmodium falciparum [22]): 0.483 µM; EC50 (Human respirovirus 3): > 20 µM; EC50 (Human alphaherpesvirus 1 [19]): > 100 µM; EC50 [20]: > 100 µM; EC50 (Human alphaherpesvirus 2): > 100 µM
Nc1nc2c(ncn2COCCO)c(=O)[nH]1 [ACYCLOVIR]	–	> 250	–	–	–	–	> 250	–	–	–	–	–	–	–	–	–	–	–	–	144	–
Nc1nc2c(ncn2COC(CO)CO)c(=O)[nH]1 [GANCICLOVIR]	–	> 100	–	–	–	–	> 100	–	–	–	–	–	4	–	–	–	7.87	5.98	> 100	–	CC50 ([10]; CRFK cells): > 100 µM
